This note sets out measurements from patent US6586416B2, “Methods of treatment using an epithelial sodium channel blocker and an inhibitor of the mineralocorticoid receptor” (priority 2001, dated 2003).

What all share (format): cell-based
In assay [1] the test system is amiloride-sensitive sodium conductance (ENaC). Kind of assay: Whole-cell patch clamp of rabbit collecting duct principal cells. To be noted: for mean current measured at EK+ (−80 mV): statistical analysis, aldosterone, then vasopressin, then amiloride. The method, then: (§1) Collecting ducts were manually dissected from sagittal slices obtained from 50 gram Sprague Dawley rats and 0.5 Kg New Zealand White rabbits. The dissected collecting ducts were suspended in RPMI 1640 culture medium supplemented with 1.5 mg/ml collagenase A (Boehringer Mannheim, Mannhein, Germany). The collecting ducts were enzymatically digested for 1.5 hours to isolate individual cells. The digested cells were washed in serum-free RPMI and placed in a perfusion chamber mounted on the stage of an inverted microscope. The whole-cell patch clamp configuration was established and initial current measurements were made in un-supplemented RPMI. […] To block the cytosolic mineralocorticoid receptor, some cells were suspended in RPMI supplemented with spironolactone for 1 hour prior to whole-cell patch clamping.
Studies were conducted using both whole cell patch clamp and single channel patch clamp techniques. Whole-cell clamped rabbit principal cells were exposed to 100 nM aldosterone. […] No cells failed both tests. […] ENa+ was approximately +60 mV with the ionic gradients present. The activated current was carried exclusively by sodium. In a separate set of experiments rabbit principal cells were re-suspended in RPMI supplemented with 1 μM spironolactone for 1 hour prior to use for whole-cell patch clamp. This concentration is sufficient to inhibit completely the mineralocorticoid receptor.
In general terms: In patch-clamp work, channel activity is measured electrically.

In assay [2] the target is T1, amiloride-sensitive sodium conductance (ENaC) (Rattus norvegicus, UniProt P37089+P37090+P37091).
T1 construct: Collecting ducts were manually dissected from sagittal slices obtained from 50 gram Sprague Dawley rats and 0.5 Kg New Zealand White rabbits; from tissue; host or cells: principal cells isolated from kidney collecting ducts of Sprague Dawley rats
T1 sequence (P37089 1-698): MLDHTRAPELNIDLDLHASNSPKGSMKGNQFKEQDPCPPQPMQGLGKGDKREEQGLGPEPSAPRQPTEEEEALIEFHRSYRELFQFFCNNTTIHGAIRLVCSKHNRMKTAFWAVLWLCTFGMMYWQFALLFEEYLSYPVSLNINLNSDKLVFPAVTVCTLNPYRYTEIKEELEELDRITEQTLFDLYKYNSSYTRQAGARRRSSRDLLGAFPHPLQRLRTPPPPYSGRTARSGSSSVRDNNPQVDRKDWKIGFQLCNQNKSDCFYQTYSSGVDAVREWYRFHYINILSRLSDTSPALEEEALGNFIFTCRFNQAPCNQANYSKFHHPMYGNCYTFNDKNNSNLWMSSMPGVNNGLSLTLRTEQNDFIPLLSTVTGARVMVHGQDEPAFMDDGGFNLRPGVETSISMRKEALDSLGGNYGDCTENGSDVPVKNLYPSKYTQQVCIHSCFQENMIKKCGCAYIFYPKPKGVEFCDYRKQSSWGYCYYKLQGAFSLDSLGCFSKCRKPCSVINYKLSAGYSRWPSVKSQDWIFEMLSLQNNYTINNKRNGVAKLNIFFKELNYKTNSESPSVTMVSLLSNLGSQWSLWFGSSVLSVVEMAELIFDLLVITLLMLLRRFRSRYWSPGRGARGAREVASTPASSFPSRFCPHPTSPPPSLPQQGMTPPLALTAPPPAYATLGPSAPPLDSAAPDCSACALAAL
T1 sequence (P37090 1-638): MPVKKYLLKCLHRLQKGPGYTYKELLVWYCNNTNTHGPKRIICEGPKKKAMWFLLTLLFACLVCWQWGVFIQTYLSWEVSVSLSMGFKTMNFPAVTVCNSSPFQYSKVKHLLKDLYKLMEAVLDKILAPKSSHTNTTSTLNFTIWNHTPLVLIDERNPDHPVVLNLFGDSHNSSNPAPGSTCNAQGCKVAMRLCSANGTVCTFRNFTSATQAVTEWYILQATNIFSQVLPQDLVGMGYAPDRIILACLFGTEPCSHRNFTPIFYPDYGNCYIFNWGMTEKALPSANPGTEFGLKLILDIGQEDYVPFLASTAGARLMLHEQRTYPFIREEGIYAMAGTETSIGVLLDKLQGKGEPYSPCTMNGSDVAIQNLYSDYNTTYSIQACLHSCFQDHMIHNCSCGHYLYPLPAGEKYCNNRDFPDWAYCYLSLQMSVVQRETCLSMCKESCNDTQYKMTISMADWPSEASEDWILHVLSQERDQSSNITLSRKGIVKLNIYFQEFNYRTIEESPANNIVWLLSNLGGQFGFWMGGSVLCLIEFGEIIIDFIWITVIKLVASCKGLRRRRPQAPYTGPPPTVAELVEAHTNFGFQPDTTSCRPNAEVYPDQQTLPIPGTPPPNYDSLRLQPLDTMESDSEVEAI
T1 sequence (P37091 1-650): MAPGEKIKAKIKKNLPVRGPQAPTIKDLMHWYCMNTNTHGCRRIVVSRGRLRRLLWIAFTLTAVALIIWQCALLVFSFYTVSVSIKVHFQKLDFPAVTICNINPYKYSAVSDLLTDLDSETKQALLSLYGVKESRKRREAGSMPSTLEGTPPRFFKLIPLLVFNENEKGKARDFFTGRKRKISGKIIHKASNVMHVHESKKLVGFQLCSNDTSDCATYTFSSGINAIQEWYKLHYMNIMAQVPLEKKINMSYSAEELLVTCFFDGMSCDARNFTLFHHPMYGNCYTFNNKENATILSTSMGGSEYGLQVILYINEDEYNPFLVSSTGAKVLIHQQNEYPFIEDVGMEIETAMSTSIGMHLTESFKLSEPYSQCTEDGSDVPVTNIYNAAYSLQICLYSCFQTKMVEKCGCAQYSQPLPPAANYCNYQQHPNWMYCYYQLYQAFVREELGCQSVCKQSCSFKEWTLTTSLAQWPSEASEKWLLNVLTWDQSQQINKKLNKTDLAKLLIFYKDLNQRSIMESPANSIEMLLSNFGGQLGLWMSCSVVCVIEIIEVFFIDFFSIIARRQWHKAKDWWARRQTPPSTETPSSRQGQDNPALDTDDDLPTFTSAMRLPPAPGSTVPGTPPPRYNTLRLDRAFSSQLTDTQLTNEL
Kind of assay: Whole-cell patch clamp of rat collecting duct principal cells. To be noted: for mean current measured at EK+ (−80 mV): statistical analysis, then vasopressin, then amiloride. As for the experimental part:
as §1
The same protocol was carried out on rabbit principal cells.

In another assay the target is T2, ENaC (Homo sapiens, UniProt P37088+P51168+P51170).
T2 construct: Human and canine lymphocytes were isolated from peripheral blood samples by differential centrifugation over ficoll paque; endogenous in cells; host or cells: human peripheral blood lymphocytes
T2 sequence (P37088 1-669): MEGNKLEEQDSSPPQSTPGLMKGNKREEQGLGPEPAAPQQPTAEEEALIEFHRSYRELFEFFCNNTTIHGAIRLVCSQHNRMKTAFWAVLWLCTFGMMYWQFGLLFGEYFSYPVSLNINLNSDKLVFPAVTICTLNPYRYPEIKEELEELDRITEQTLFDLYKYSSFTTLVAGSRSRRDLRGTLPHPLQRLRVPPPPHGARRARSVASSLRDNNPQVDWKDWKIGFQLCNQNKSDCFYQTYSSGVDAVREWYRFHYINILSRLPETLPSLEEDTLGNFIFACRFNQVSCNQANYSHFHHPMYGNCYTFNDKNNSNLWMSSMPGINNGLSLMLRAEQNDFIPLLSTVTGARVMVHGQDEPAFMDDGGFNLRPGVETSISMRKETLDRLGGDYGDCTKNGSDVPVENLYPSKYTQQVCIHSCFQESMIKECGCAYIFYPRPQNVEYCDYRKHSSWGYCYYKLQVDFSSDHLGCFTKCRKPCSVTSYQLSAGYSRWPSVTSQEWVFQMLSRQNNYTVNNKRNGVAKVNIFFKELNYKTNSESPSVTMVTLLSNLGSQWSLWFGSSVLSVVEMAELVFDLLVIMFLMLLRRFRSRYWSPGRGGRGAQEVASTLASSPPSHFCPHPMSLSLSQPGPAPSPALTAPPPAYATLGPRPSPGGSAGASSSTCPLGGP
T2 sequence (P51168 1-640): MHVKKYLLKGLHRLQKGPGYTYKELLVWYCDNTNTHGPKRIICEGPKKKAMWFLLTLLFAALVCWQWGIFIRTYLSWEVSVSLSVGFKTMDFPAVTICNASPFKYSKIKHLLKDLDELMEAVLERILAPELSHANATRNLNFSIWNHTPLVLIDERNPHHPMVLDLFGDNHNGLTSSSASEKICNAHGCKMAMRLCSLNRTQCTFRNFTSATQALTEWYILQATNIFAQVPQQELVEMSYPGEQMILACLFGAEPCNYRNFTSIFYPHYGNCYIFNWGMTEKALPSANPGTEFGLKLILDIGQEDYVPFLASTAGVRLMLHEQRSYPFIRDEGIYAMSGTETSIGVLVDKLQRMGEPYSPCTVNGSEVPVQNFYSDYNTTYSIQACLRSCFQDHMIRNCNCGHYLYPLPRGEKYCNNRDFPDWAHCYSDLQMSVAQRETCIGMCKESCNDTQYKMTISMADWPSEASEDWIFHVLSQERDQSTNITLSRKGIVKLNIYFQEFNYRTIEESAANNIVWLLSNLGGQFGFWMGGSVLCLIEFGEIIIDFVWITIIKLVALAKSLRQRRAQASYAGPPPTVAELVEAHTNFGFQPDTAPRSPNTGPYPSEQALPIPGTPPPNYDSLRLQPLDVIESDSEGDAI
T2 sequence (P51170 1-649): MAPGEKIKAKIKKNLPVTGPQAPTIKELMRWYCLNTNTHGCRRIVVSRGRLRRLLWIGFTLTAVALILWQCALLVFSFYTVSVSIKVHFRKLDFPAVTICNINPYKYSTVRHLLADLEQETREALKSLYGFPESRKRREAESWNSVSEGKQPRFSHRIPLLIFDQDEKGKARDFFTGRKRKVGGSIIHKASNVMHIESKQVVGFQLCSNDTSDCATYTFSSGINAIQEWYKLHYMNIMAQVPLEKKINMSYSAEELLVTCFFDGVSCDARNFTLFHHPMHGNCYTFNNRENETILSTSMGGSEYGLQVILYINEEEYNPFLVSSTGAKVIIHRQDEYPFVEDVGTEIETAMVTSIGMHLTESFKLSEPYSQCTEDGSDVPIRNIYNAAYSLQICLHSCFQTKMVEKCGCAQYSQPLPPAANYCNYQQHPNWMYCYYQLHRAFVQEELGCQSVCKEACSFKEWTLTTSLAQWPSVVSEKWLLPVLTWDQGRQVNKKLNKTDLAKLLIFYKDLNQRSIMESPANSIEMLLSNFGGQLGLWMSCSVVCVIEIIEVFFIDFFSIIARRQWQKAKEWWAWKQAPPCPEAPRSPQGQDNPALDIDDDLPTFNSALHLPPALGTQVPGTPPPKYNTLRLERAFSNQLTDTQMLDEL
Kind of assay: Single channel patch clamp (outside-out patches) of human lymphocytes. As for the experimental part: Human and canine lymphocytes were isolated from peripheral blood samples by differential centrifugation over ficoll paque (Pharmacia Biotech, Uppsala, Sweden). The cells were washed and re-suspended in serum-free RPMI. Subsequently, suspended cells were placed in the perfusion chamber. Whole-cell patch clamp and testing of aldosterone were carried out using identical techniques and protocols as described for principal cells. Rabbit, rat and mouse lymphocytes were obtained by mincing sections of spleen and manually freeing the cells by agitation. The cell suspensions were then centrifuged over ficoll paque and treated identically to the lymphocytes obtained from peripheral blood. All procedures were carried out under the guidelines for animal use and with institutional board approval for human use.
The “ragged” morphology of the whole-cell currents in principal cells and lymphocytes has generated some concern about the identity of the channels that are activated by aldosterone. To address this concern, single channel characteristics of the sodium conductors expressed by human lymphocytes were studied.
To test the amiloride sensitivity of the single channels, outside-out patches were formed because amiloride only interacts with the outside surface of the channels. A “rundown” phenomena typical of ENaC in the inside-out patch experiments was noted.

In the case of `NC(=O)CC[C@@H]1NC(=O)[C@H](Cc2ccccc2)NC(=O)[C@H](Cc2ccc(O)cc2)NC(=O)[C@@H](N)CSSC[C@@H](C(=O)N2CCC[C@H]2C(=O)N[C@@H](CCCN=C(N)N)C(=O)NCC(N)=O)NC(=O)[C@H](CC(N)=O)NC1=O` [vasopressin], the “mean current measured at EK+ (−80 mV)” value in assay [1] (rabbit principal cells) is “had no additional effect”; in assay [2] (aldosterone) it was “increased it significantly”. Also, in assay [1] (rabbit principal cells, vasopressin after aldosterone), the “further activation of inward currents after ENaC activation by aldosterone” value was “did not activate the inward currents any further”. For the same molecule, the “activation of amiloride sensitive inward currents” value in assay [2] (250 nM vasopressin after aldosterone) is recorded as “acute specific activation of the amiloride sensitive inward currents”.

On to `C[C@]12CCC(=O)C=C1CC[C@@H]1[C@@H]2[C@@H](O)C[C@]2(C=O)[C@@H](C(=O)CO)CC[C@@H]12` [aldosterone], for which, in assay [1] (rabbit principal cells pre-treated with 1 μM spironolactone, 100 nM aldosterone), the “effect on inward currents with mineralocorticoid receptor inhibition” value is on record as “specifically activated the inward currents”. Further, the “effect on inward currents at hyperpolarized membrane potential clamp voltages” value in assay [1] (rabbit principal cells, 100 nM aldosterone in bath) was “specific activation of the inward currents”. The “mean current measured at EK+ (−80 mV)” value in assay [1] (rabbit principal cells) is “significantly increased the current”. Also, the “time to aldosterone-stimulated ENaC activation” value in assay [1] (rabbit principal cells, whole-cell clamp, ATP-supplemented pipette solution) was “within seconds”. Moreover, in assay [2] (aldosterone), the “acute effect on principal cells” value was “no acute affect” and the “mean current measured at EK+ (−80 mV)” value was “did not alter the current”. In addition, on ENaC (cells treated with 100 nM aldosterone), the unitary conductance result is given as “unchanged”.

In the case of `N=C(N)NC(=O)c1nc(Cl)c(N)nc1N` [amiloride], in assay [1] (rabbit principal cells, 2 μM amiloride in the continued presence of aldosterone), the “inhibition of aldosterone-activated currents” value was “inhibited completely”. The “mean current measured at EK+ (−80 mV)” value in assay [1] (rabbit principal cells) is “returned the conductance to the basal level”; in assay [2] (aldosterone), “restored the current to the basal level”. In addition, the single channel activity result on ENaC (amiloride 2 μM) is “completely abolished”; at ENaC (cells treated with 100 nM aldosterone, amiloride 2 μM final concentration in bath), “virtually abolished”. In addition, on ENaC (amiloride concentration close to IC50 ([…] nM)), the “inhibition of single channels” value is listed as “Incomplete inhibitory action”.

Regarding `CC(=O)S[C@@H]1CC2=CC(=O)CC[C@]2(C)[C@H]2CC[C@@]3(C)[C@@H](CC[C@@]34CCC(=O)O4)[C@H]12` [spironolactone], the “effect on inward currents” value in assay [1] (rabbit principal cells, 1 μM spironolactone for 1 hour prior to whole-cell patch clamp) is given as “no effect on the inward currents”.
